# Measured values published in US8517736B2, “Method for alleviating the undesired side effects of dental bleaching” (Dr. Gunnar Rolla Consultant AS, priority 2011, dated 2013).
# Where two headings read alike, the source gives them in different places.
# How the values were obtained:
# [1] = SEM micrographs of bleached human tooth enamel surface; settings: human tooth enamel after bleaching with peroxide
# Description: FIG. 2: A SEM micrograph showing the same tooth surface (from FIG. 1) covered with a film of dehydrated Ca(OH)2.
# FIG. 3: A SEM micrograph showing the same tooth surface (from FIG. 2) subsequently treated with 2% by weight NaF-solution.
# [2] = saturated, or less than saturated, aqueous solutions
# [3] = system: hypersensitive bleached front teeth
# Description: A volunteer had performed a self-bleaching procedure on their teeth, using a home kit. They complained and described their front teeth as extremely sensitive for changes of temperature in drinks or food. The teeth were rinsed carefully with water at room temperature, and isolated with cotton rolls. The teeth were kept dry and then treated with a generous amount of a saturated aqueous solution of Ca(OH)2, at an acceptable temperature, for a period of about 5 minutes. After a few additional minutes the cotton rolls were removed, and treatment with an aqueous solution of 2.0% by weight of NaF was performed, to induce formation CaF2, to stabilize the calcium added.
smiles,measurement,setting,value
"OO [peroxide, hydrogen peroxide]","enamel surface appearance after bleaching (SEM, FIG. 1)",[1],pitted and damaged by demineralization
"[Ca+2].[OH-].[OH-] [Ca(OH)2, calcium hydroxide]",pH,[2],> 10
same,pH,[2]; listed as calcium hydroxide,14
same,tooth colour after treatment,[3]; after saturated Ca(OH)2 then 2.0% NaF treatment,maintained an acceptable colour
same,reappearance of sensitivity after treatment,[3]; follow-up after saturated Ca(OH)2 then 2.0% NaF treatment,sensitivity has not reappeared
same,hypersensitivity of bleached teeth after treatment,"[3]; volunteer, saturated aqueous Ca(OH)2 about 5 minutes, followed by aqueous 2.0% by weight NaF",hypersensitivity was eliminated
